Source: patent publication US20260337211A1, “IP5 SUBSTITUTED COMPOUNDS” (SANIFIT THERAPEUTICS, S.A., priority 2022, published 2026)
Counter-ions that a name gives are not always drawn.

assay: In vitro inhibition of calcium phosphate crystallization in human plasma (spectrophotometric, 550 nm); type: biochemical; details: 0-100 μM compound, 1.5 mM phosphate and 12.5 mM calcium, pH 7.4, 30 min at rt, slope between 6 and 24 min, 30 min, read-out: Relative Potency (EC50)
Description: The in vitro efficacy of the IP5 substituted compounds (e.g., Compounds 1 to 32) of the invention on the inhibition of calcium phosphate crystallization in human plasma samples was evaluated according to a spectrophotometric assay previously described in the art (Ferrer M, et al., Sci Rep 2017; 7:6858, doi:10.1038/s41598-017-07203-x).
A 96-well plate was employed. Plasma was spiked (1 volume of the IP5 substituted compounds of the invention per 19 volumes of plasma) with increasing concentrations of the derivatives in the range of 0-100 μM. Plasma was then centrifuged at 10,000 g at rt and subsequently mixed with a mixture of 5 mM hydrogen phosphate and 41.67 mM calcium to attain final concentrations of 1.5 mM phosphate and 12.5 mM calcium, respectively. All reagent solutions were filtered, and pH adjusted to 7.4.
Crystallization of calcium phosphate was monitored spectrophotometrically for 30 min at rt by measuring the increments in absorbance at 550 nm using the Biotek Powerwave XS Microplate spectrophotometer (BioTek Instruments, Inc., Winooski, VT, US). The plate was incubated at rt in an orbital shaker and absorbance measured every 3 min.
Plasma crystallization was assessed based on slope measurement in the linear range between 6 and 24 min from plots of increase in absorbance versus logarithm of time. The efficacy of different myo-inositol phosphates derivatives in preventing in vitro formation of calcium phosphate crystals was assessed in human plasma samples using the slopes obtained between 6- and 24-min. Inhibition of crystallization was measured by comparing the slopes of the control sample (blank plasma) with those of samples containing the inhibitor as shown below: […]

| Molecule | EC50 |
| --- | --- |
| O=P(O)(O)OC1C(OCCCCCC(F)(F)F)C(OP(=O)(O)O)C(OP(=O)(O)O)C(OP(=O)(O)O)C1OP(=O)(O)O (racemic) [Compound 50, rac-1-O-(6,6,6-Trifluorohexyl)-myo-inositol-2,3,4,5,6-pentakis(phosphate) decasodium salt] | 5 to 10 µM |
| O=P(O)(O)OC1C(OCCCCCC(F)(F)F)C(OP(=O)(O)O)C(OP(=O)(O)O)C(OP(=O)(O)O)C1OP(=O)(O)O (stereo not shown) [Compound 36, 2-O-(6,6,6-Trifluorohexyl)-myo-inositol-1,3,4,5,6-pentakis(phosphate) decasodium salt] | ≤ 5 µM |

same assay, conditions: 0-100 μM compound, 1.5 mM phosphate and 12.5 mM calcium, pH 7.4, 30 min at rt, slope between 6 and 24 min, read-out: Relative Potency (EC50)

| Molecule | EC50 |
| --- | --- |
| 2-O-(5-(4-(Methoxymethyl)-1H-1,2,3-triazol-1-yl)pentyl)-myo-inositol-1,3,4,5,6-pentakis(phosphate) decasodium [Compound 41] | > 10 µM |
| 2-O-(5-Acetamidopentyl)-myo-inositol-1,3,4,5,6-pentakis(phosphate) decasodium salt [Compound 35] | > 10 µM |
| 2-O-(5-Methoxypentyl)-myo-inositol-1,3,4,5,6-pentakis(phosphate) decasodium salt [Compound 7] | 5 to 10 µM |
| 2-O-(19-methoxynonadecyl)-myo-inositol-1,3,4,5,6-pentakis(phosphate) decasodium salt [Compound 9] | > 10 µM |
| 2-O-((1-(2-Carboxyethyl)-1H-1,2,3-triazol-4-yl)methyl)-myo-inositol-1,3,4,5,6-pentakis(phosphate) undecasodium salt [Compound 42] | 5 to 10 µM |
| 2-O-Pentyl-myo-inositol-1,3,4,5,6-pentakis(phosphate) decasodium salt [Compound 6] | ≤ 5 µM |
| 2-O-Propargyl-myo-inositol-1,3,4,5,6-pentakis(phosphate) decasodium salt [Compound 43] | 5 to 10 µM |
| 5-O-(2-Cyclopropylethyl)-myo-inositol-1,2,3,4,6-pentakis(phosphate) decasodium salt [Compound 30] | 5 to 10 µM |
| 5-O-(6,6,6-Trifluorohexyl)-myo-inositol-1,2,3,4,6-pentakis(phosphate) decasodium salt [Compound 45] | 5 to 10 µM |
| 5-O-(9-Methoxynonyl)-myo-inositol-1,2,3,4,6-pentakis(phosphate) decasodium salt [Compound 31] | 5 to 10 µM |
| 5-O-(9-Methoxypentyl)-myo-inositol-1,2,3,4,6-pentakis(phosphate) decasodium salt [Compound 44] | 5 to 10 µM |
| 5-O-Propyl-myo-inositol-1,2,3,4,6-pentakis(phosphate) decasodium salt [Compound 29] | 5 to 10 µM |
| Cc1ccc(CCCOC2C(OP(=O)(O)O)C(OP(=O)(O)O)C(OP(=O)(O)O)C(OP(=O)(O)O)C2OP(=O)(O)O)cc1 (racemic) [Compound 11, rac-4-O-(3-(p-Tolyl)propyl)-myo-inositol-1,2,3,5,6-pentakis(phosphate) decasodium salt] | 5 to 10 µM |
| CC(C)CCCOC1C(OP(=O)(O)O)C(OP(=O)(O)O)C(OP(=O)(O)O)C(OP(=O)(O)O)C1OP(=O)(O)O (racemic) [Compound 12, rac-4-O-(4-Methylpentyl)-myo-inositol-1,2,3,5,6-pentakis(phosphate) decasodium salt] | 5 to 10 µM |
| COc1ccc(CCCOC2C(OP(=O)(O)O)C(OP(=O)(O)O)C(OP(=O)(O)O)C(OP(=O)(O)O)C2OP(=O)(O)O)cc1 (racemic) [Compound 14, rac-4-O-(3-(4-Methoxyphenyl)propyl)-myo-inositol-1,2,3,5,6-pentakis(phosphate) decasodium salt] | ≤ 5 µM |
| O=P(O)(O)OC1C(OCCCc2cccc(C(F)(F)F)c2)C(OP(=O)(O)O)C(OP(=O)(O)O)C(OP(=O)(O)O)C1OP(=O)(O)O (racemic) [Compound 15, rac-4-O-(3-(3-(Trifluoromethyl)phenyl)propyl)-myo-inositol-1,2,3,5,6-pentakis(phosphate) decasodium salt] | 5 to 10 µM |

| Molecule | EC50 |
| --- | --- |
| O=P(O)(O)OC1C(OCCC2CCCC2)C(OP(=O)(O)O)C(OP(=O)(O)O)C(OP(=O)(O)O)C1OP(=O)(O)O (racemic) [Compound 16, rac-4-O-(2-Cyclopentylethyl)-myo-inositol-1,2,3,5,6-pentakis(phosphate) decasodium salt] | ≤ 5 µM |
| O=P(O)(O)OC1C(OCCC2CC2)C(OP(=O)(O)O)C(OP(=O)(O)O)C(OP(=O)(O)O)C1OP(=O)(O)O (racemic) [Compound 17, rac-4-O-(2-Cyclopropylethyl)-myo-inositol-1,2,3,5,6-pentakis(phosphate) decasodium salt] | 5 to 10 µM |
| O=P(O)(O)OC1C(OCCCCCn2cccn2)C(OP(=O)(O)O)C(OP(=O)(O)O)C(OP(=O)(O)O)C1OP(=O)(O)O (racemic) [Compound 18, rac-4-O-(5-(1H-Pyrazol-1-yl)pentyl)-myo-inositol-1,2,3,5,6-pentakis(phosphate) decasodium salt] | 5 to 10 µM |
| O=C(O)CCc1cn(CCCOC2C(OP(=O)(O)O)C(OP(=O)(O)O)C(OP(=O)(O)O)C(OP(=O)(O)O)C2OP(=O)(O)O)nn1 (racemic) [Compound 25, rac-4-O-(3-(4-(2-carboxyethyl)-1H-1,2,3-triazol-1-yl)propyl)-myo-inositol-1,2,3,5,6-pentakis(phosphate) undecasodium salt] | > 10 µM |
| NCCCOC1C(OP(=O)(O)O)C(OP(=O)(O)O)C(OP(=O)(O)O)C(OP(=O)(O)O)C1OP(=O)(O)O (racemic) [Compound 27, rac-4-O-(3-Aminopropyl)-myo-inositol-1,2,3,5,6-pentakis(phosphate) decasodium salt] | ≤ 5 µM |
| NC(=O)CCCCCOC1C(OP(=O)(O)O)C(OP(=O)(O)O)C(OP(=O)(O)O)C(OP(=O)(O)O)C1OP(=O)(O)O (racemic) [Compound 33, rac-4-O-(6-Amino-6-oxohexyl)-myo-inositol-1,2,3,5,6-pentakis(phosphate) decasodium salt] | ≤ 5 µM |
| O=P(O)(O)OC1C(OCCC2CCCC2)C(OP(=O)(O)O)C(OP(=O)(O)O)C(OP(=O)(O)O)C1OP(=O)(O)O (racemic) [Compound 51, rac-1-O-(2-Cyclopentylethyl)-myo-inositol-2,3,4,5,6-pentakis(phosphate) decasodium salt] | ≤ 5 µM |
| COCCCCCCCCCO[C@H]1[C@@H](OP(=O)(O)O)[C@H](OP(=O)(O)O)[C@@H](OP(=O)(O)O)[C@H](OP(=O)(O)O)[C@H]1OP(=O)(O)O [Compound 8, 2-O-(9-Methoxynonyl)-myo-inositol-1,3,4,5,6-pentakis(phosphate) decasodium salt] | 5 to 10 µM |
| COCCCCCCCCCCCCCCCCCCCCCCCCCCCCCO[C@H]1[C@@H](OP(=O)(O)O)[C@H](OP(=O)(O)O)[C@@H](OP(=O)(O)O)[C@H](OP(=O)(O)O)[C@H]1OP(=O)(O)O [Compound 10, 2-O-(29-methoxynonacosyl)-myo-inositol-1,3,4,5,6-pentakis(phosphate) decasodium salt] | ≤ 5 µM |
| CCCOC1C(OP(=O)(O)O)C(OP(=O)(O)O)C(OP(=O)(O)O)C(OP(=O)(O)O)C1OP(=O)(O)O (stereo not shown) [Compound 34, 2-O-Propyl-myo-inositol-1,3,4,5,6-pentakis(phosphate) decasodium salt] | 5 to 10 µM |
| NC(=O)CCCCCO[C@H]1[C@@H](OP(=O)(O)O)[C@H](OP(=O)(O)O)[C@@H](OP(=O)(O)O)[C@H](OP(=O)(O)O)[C@H]1OP(=O)(O)O [Compound 37, 2-O-(6-Amino-6-oxohexyl)-myo-inositol-1,3,4,5,6-pentakis(phosphate) decasodium salt] | 5 to 10 µM |
| O=P(O)(O)O[C@@H]1[C@@H](OP(=O)(O)O)[C@H](OP(=O)(O)O)[C@H](OCCC2CCCC2)[C@H](OP(=O)(O)O)[C@H]1OP(=O)(O)O [Compound 38, 2-O-(2-Cyclopentylethyl)-myo-inositol-1,3,4,5,6-pentakis(phosphate) decasodium salt] | 5 to 10 µM |
| O=P(O)(O)OC1C(OCCC2CC2)C(OP(=O)(O)O)C(OP(=O)(O)O)C(OP(=O)(O)O)C1OP(=O)(O)O (stereo not shown) [Compound 39, 2-O-(2-Cyclopropylethyl)-myo-inositol-1,3,4,5,6-pentakis(phosphate) decasodium salt] | 5 to 10 µM |
| O=P(O)(O)OC1C(OCCCCCO)C(OP(=O)(O)O)C(OP(=O)(O)O)C(OP(=O)(O)O)C1OP(=O)(O)O (stereo not shown) [Compound 40, 2-O-(5-Hydroxypentyl)-myo-inositol-1,3,4,5,6-pentakis(phosphate) decasodium salt] | 5 to 10 µM |
| COCc1cn(CCCCCOC2C(OP(=O)(O)O)C(OP(=O)(O)O)C(OP(=O)(O)O)C(OP(=O)(O)O)C2OP(=O)(O)O)nn1 (stereo not shown) [Compound 46, 5-O-(5-(4-(Methoxymethyl)-1H-1,2,3-triazol-1-yl)pentyl)-myo-inositol-1,2,3,4,6-pentakis(phosphate) decasodium salt] | > 10 µM |
| rac-1-O-(2-Cyclopropylethyl)-myo-inositol-2,3,4,5,6-pentakis(phosphate) decasodium salt [Compound 48] | ≤ 5 µM |
